Assay results as given in US8852657B2, “Chromones as therapeutic agents” (Unigen, Inc., priority 2007, dated 2014).
Entries after “also recorded” stand apart in the source; their conditions may differ.

Assays:
Assay type in all cases: in vivo, mouse
[1] = system: high fat diet induced C57BL/6J mice; test: Intraperitoneal insulin tolerance test, UP780 dose-range study; conditions: after 10 weeks of daily oral treatment; P≦0.05
Description: Once an induction of the disease on animals after 8 weeks of high fat diets was confirmed by monitoring of selected parameters, daily oral treatment was initiated. On each day, the test articles and the positive control GW1929 (Tocris Bioscience, Ellisville, Mo., Batch #2A/58705) were dissolved in 0.5% methylcellulose (Sigma, St. Louise Mo., Lot#116H0857) and delivered at an oral dose of 100, 200 and 400 mg/kg of UP780 (Lot # L1806QMAW-01); 400 mg/kg of Qmatrix® Aloe vera gel powder (QM400, Lot# G6319103-L3) as well as 5 mg/kg of GW1929. As GW1929 was not completely solublized in methylcellulose, it was first dissolved in DMSO (Sigma, St. Louis, Mo., Batch#064K0067). The final concentration of test compounds, including the vehicle, was then adjusted to contain 5% DMSO before drug administration. The carrier vehicle treated animals received 0.5% methylcellulose only. No detectable sign of irritation was observed after each drug or vehicle administration. […]
An intraperitoneal glucose tolerance test was conducted on day 0 (baseline), weeks 3, and 9 after onset of treatment. […] Blood glucose levels were determined at time 0 (before glucose injection), 30, 60, 90, and 120 minutes post glucose delivery. […] Blood glucose levels were determined at time 0 (before insulin injection), 30, 60, 90, and 120 minutes after insulin administration. […]

[2] = Feed consumption, UP780 dose-range study; conditions: GW1929 5 mg/kg, Qmatrix 400 mg/kg, UP780 100, 200 and 400 mg/kg
Description: Once an induction of the disease on animals after 8 weeks of high fat diets was confirmed by monitoring of selected parameters, daily oral treatment was initiated. On each day, the test articles and the positive control GW1929 (Tocris Bioscience, Ellisville, Mo., Batch #2A/58705) were dissolved in 0.5% methylcellulose (Sigma, St. Louise Mo., Lot#116H0857) and delivered at an oral dose of 100, 200 and 400 mg/kg of UP780 (Lot # L1806QMAW-01); 400 mg/kg of Qmatrix® Aloe vera gel powder (QM400, Lot# G6319103-L3) as well as 5 mg/kg of GW1929. As GW1929 was not completely solublized in methylcellulose, it was first dissolved in DMSO (Sigma, St. Louis, Mo., Batch#064K0067). The final concentration of test compounds, including the vehicle, was then adjusted to contain 5% DMSO before drug administration. The carrier vehicle treated animals received 0.5% methylcellulose only. No detectable sign of irritation was observed after each drug or vehicle administration.
As described on Example 12, male C57BL/6J mice were purchased from Jackson Laboratories (Bar Harbor, Me.) at 6 weeks of age. […]
Three or four male C57BL/6J mice were housed in a mouse cage that had sections for feed and water. Feed intake was determined daily by measuring the difference between previously weighed high fat pellets value and what was left on the given day. […]

[3] = system: C57BL/6J mice fed high fat diet; test: Intraperitoneal glucose tolerance test, high-fat diet induced model (UP394/UP396); conditions: day 18; times 60, 90 and 120 minutes; p<0.05; GW1929 5 mg/kg, UP396 100 mg/kg intraperitoneally
Excerpt: A high-fat diet induced animal model was developed and used for evaluation of potential therapeutic effects of chromone extracts. The C57BL/6J is a clinically relevant animal model that can be used in studies on metabolic disorders, pathophysiology of impaired glucose tolerance and for development of novel therapeutic agents (Ahren et al. (2004) Diabetes 53 (Supplement 3):S215-S219; Laakso et al. (2004) Diabetes Care 27:2253-2259; Kahn et al. (2004) Diabetes 53:3274-3285; Scheurink et al. (1998) European J Endo. 139:461-467; Yuan et al. (2002) Diabetes 51:1851-1858; Reitman et al. (2005) Endocrinology 145:3258-3264; Vlassara et al. (2005) Diabetes 54:2314-2319; Cawthome et al. (2002) Molecular and Cellular Proteomics 1:509-516). Methodology of model induction was first explained by Surwit et al. in 1988 (Diabetes, 37:1163-1167). […] Blood glucose, cholesterol, and triglyceride were monitored every week for 12 weeks as described previously. […]
An intraperitoneal glucose tolerance test was conducted using the C57BL/6J mice as described in Example 12 at a dose of 2 g/kg on day 18 of treatment with intraperitoneal administration of GW1929 (5 mg/kg), UP394 (100 mg/kg), UP396 (100 mg/kg) and vehicle. […] Blood glucose levels were measured at time 0, 30, 60, 90, and 120 minutes. […]

[4] = system: C57BL/6J mice fed high fat diet; test: Plasma insulin level (ELISA), high-fat diet induced model; conditions: day 14 of treatment after 8 weeks high-fat diet; P<0.05; GW1929 5 mg/kg, UP394 and UP396 100 mg/kg
Excerpt: A high-fat diet induced animal model was developed and used for evaluation of potential therapeutic effects of chromone extracts. The C57BL/6J is a clinically relevant animal model that can be used in studies on metabolic disorders, pathophysiology of impaired glucose tolerance and for development of novel therapeutic agents (Ahren et al. (2004) Diabetes 53 (Supplement 3):S215-S219; Laakso et al. (2004) Diabetes Care 27:2253-2259; Kahn et al. (2004) Diabetes 53:3274-3285; Scheurink et al. (1998) European J Endo. 139:461-467; Yuan et al. (2002) Diabetes 51:1851-1858; Reitman et al. (2005) Endocrinology 145:3258-3264; Vlassara et al. (2005) Diabetes 54:2314-2319; Cawthome et al. (2002) Molecular and Cellular Proteomics 1:509-516). Methodology of model induction was first explained by Surwit et al. in 1988 (Diabetes, 37:1163-1167). In brief, impaired glucose tolerance and metabolic disorder like symptoms were inflicted successfully in C57BL/6J mice when fed with high fat diets for 8 weeks. Male C57BL/6J mice were purchased from Jackson Laboratories (Bar Harbor, Me.) at age of 6 weeks. One week after acclimation period, animals were divided into groups (n=5 or 6) and provided with high fat (45% kcal) rodent pellet (Research diets, Inc., New Brunswick, N.J.) and water ad libitum for 12 weeks except at times of glucose and insulin tolerance tests at which feed was withheld for three hours. Animals were maintained in a temperature controlled room (22.2° C.) on a 12 hour light-dark cycle. Blood glucose, cholesterol, and triglyceride were monitored every week for 12 weeks as described previously. Body weight measurement was taken once a week for 12 weeks.
Once induction of the metabolic disorders was confirmed by weekly monitoring of selected parameters (glucose, triglyceride and cholesterol) i.e. on the 8th week, daily intraperitoneal treatment was initiated and maintained for 4 weeks. […]
The plasma insulin levels were measured with an ELISA kit for insulin (Crystal Chem—Chicago, Ill.). […]

SMILES: CN(CCOc1ccc(C[C@H](Nc2ccccc2C(=O)c2ccccc2)C(=O)O)cc1)c1ccccn1 [GW1929, N-(2-Benzoylphenyl)-O-[2-(methyl-2-pyridinylamino)ethyl]-L-tyrosine]
- significant differences in intraperitoneal insulin tolerance test vs vehicle [1]: after 1 hour insulin injection
- feed consumption difference between groups [2]: no significant body weight gain or feed consumption differences
- glucose utilization in intraperitoneal glucose tolerance test compared to vehicle [3]: Significant glucose utilization
- plasma insulin levels compared to vehicle [4]: decreased the insulin level significantly; also recorded: Significant decreases in plasma insulin levels
